Results taken from the NIST ThermoML archive (doi:10.1021/je7002918).

Assay: xn = mol fraction of the nth substance listed
Settings: 298.15 K, 101 kPa, Liquid

CC(C)(C)Cl [2-chloro-2-methylpropane] + Cc1ccccc1
Settings | excess molar volume [m3/mol]
x1 = 0.0932 | -1.14e-07
x1 = 0.1243 | -1.48e-07
x1 = 0.1832 | -2.11e-07
x1 = 0.2556 | -2.75e-07
x1 = 0.3342 | -3.28e-07
x1 = 0.3895 | -3.54e-07
x1 = 0.428 | -3.68e-07
x1 = 0.4952 | -3.81e-07
x1 = 0.5467 | -3.76e-07
x1 = 0.5985 | -3.64e-07
x1 = 0.6356 | -3.53e-07
x1 = 0.6889 | -3.2e-07
x1 = 0.8102 | -2.26e-07
x1 = 0.8961 | -1.3e-07
x1 = 0.9405 | -7.4e-08

CC(C)(C)Cl [2-chloro-2-methylpropane] + Cc1ccccc1C
Settings | excess molar volume [m3/mol]
x1 = 0.0698 | -1.32e-07
x1 = 0.1023 | -1.86e-07
x1 = 0.1642 | -2.64e-07
x1 = 0.209 | -3.06e-07
x1 = 0.2653 | -3.54e-07
x1 = 0.3321 | -3.88e-07
x1 = 0.4187 | -4.22e-07
x1 = 0.4979 | -4.32e-07
x1 = 0.5984 | -4.28e-07
x1 = 0.6627 | -4.16e-07
x1 = 0.7452 | -3.72e-07
x1 = 0.8056 | -3.22e-07
x1 = 0.9113 | -1.88e-07
x1 = 0.9453 | -1.24e-07

CC(C)(C)Cl [2-chloro-2-methylpropane] + Cc1ccc(C)cc1
Settings | excess molar volume [m3/mol]
x1 = 0.0816 | -1.02e-07
x1 = 0.1212 | -1.48e-07
x1 = 0.1874 | -2.12e-07
x1 = 0.2585 | -2.68e-07
x1 = 0.308 | -3.04e-07
x1 = 0.3746 | -3.32e-07
x1 = 0.4539 | -3.56e-07
x1 = 0.5117 | -3.57e-07
x1 = 0.5918 | -3.44e-07
x1 = 0.6635 | -3.18e-07
x1 = 0.7516 | -2.62e-07
x1 = 0.8683 | -1.56e-07
x1 = 0.9321 | -8.2e-08

CCC(C)Cl (stereo unspecified) [2-chlorobutane] + Cc1cccc(C)c1
Settings | excess molar volume [m3/mol]
x1 = 0.0694 | -5.4e-08
x1 = 0.1004 | -7.8e-08
x1 = 0.139 | -9.4e-08
x1 = 0.2117 | -1.22e-07
x1 = 0.2712 | -1.43e-07
x1 = 0.3438 | -1.5e-07
x1 = 0.4061 | -1.56e-07
x1 = 0.4884 | -1.62e-07
x1 = 0.5442 | -1.62e-07
x1 = 0.601 | -1.56e-07
x1 = 0.7408 | -1.34e-07
x1 = 0.8431 | -1.06e-07
x1 = 0.9249 | -6.2e-08

CC(C)(C)Cl [2-chloro-2-methylpropane] + c1ccccc1
Settings | excess molar volume [m3/mol]
x1 = 0.0821 | -9.4e-08
x1 = 0.1115 | -1.22e-07
x1 = 0.2016 | -1.8e-07
x1 = 0.2989 | -2.31e-07
x1 = 0.314 | -2.4e-07
x1 = 0.3587 | -2.46e-07
x1 = 0.3959 | -2.52e-07
x1 = 0.446 | -2.58e-07
x1 = 0.5551 | -2.45e-07
x1 = 0.6721 | -2.06e-07
x1 = 0.7422 | -1.74e-07
x1 = 0.828 | -1.28e-07
x1 = 0.914 | -6.6e-08

CCC(C)Cl (stereo unspecified) [2-chlorobutane] + Cc1ccccc1C
Settings | excess molar volume [m3/mol]
x1 = 0.0784 | -6.6e-08
x1 = 0.121 | -1.12e-07
x1 = 0.1509 | -1.34e-07
x1 = 0.166 | -1.47e-07
x1 = 0.2243 | -2.01e-07
x1 = 0.314 | -2.62e-07
x1 = 0.3921 | -2.92e-07
x1 = 0.4879 | -3.1e-07
x1 = 0.5552 | -2.95e-07
x1 = 0.669 | -2.46e-07
x1 = 0.7282 | -2.12e-07
x1 = 0.8091 | -1.42e-07
x1 = 0.8816 | -8.6e-08
x1 = 0.9052 | -6.4e-08

CCC(C)Cl (stereo unspecified) [2-chlorobutane] + Cc1ccccc1
Settings | excess molar volume [m3/mol]
x1 = 0.0856 | -6.6e-08
x1 = 0.1276 | -9.6e-08
x1 = 0.2495 | -1.73e-07
x1 = 0.3441 | -2.12e-07
x1 = 0.4723 | -2.32e-07
x1 = 0.5018 | -2.34e-07
x1 = 0.5569 | -2.32e-07
x1 = 0.6025 | -2.21e-07
x1 = 0.6712 | -2.06e-07
x1 = 0.7991 | -1.46e-07
x1 = 0.9046 | -7.2e-08
x1 = 0.9432 | -4.4e-08

CCC(C)Cl (stereo unspecified) [2-chlorobutane] + Cc1ccc(C)cc1
Settings | excess molar volume [m3/mol]
x1 = 0.0881 | -6.5e-08
x1 = 0.163 | -1.26e-07
x1 = 0.3481 | -2.26e-07
x1 = 0.4012 | -2.48e-07
x1 = 0.4742 | -2.54e-07
x1 = 0.5001 | -2.58e-07
x1 = 0.5534 | -2.52e-07
x1 = 0.6264 | -2.34e-07
x1 = 0.6784 | -2.06e-07
x1 = 0.738 | -1.75e-07
x1 = 0.7871 | -1.46e-07
x1 = 0.8758 | -8.6e-08
x1 = 0.9179 | -5.2e-08

CC(C)(C)Cl [2-chloro-2-methylpropane] + Cc1cccc(C)c1
Settings | excess molar volume [m3/mol]
x1 = 0.0875 | -8.4e-08
x1 = 0.1216 | -1.16e-07
x1 = 0.1973 | -1.76e-07
x1 = 0.2724 | -2.22e-07
x1 = 0.3516 | -2.58e-07
x1 = 0.4307 | -2.84e-07
x1 = 0.4832 | -2.9e-07
x1 = 0.5214 | -2.94e-07
x1 = 0.5768 | -2.86e-07
x1 = 0.658 | -2.66e-07
x1 = 0.7305 | -2.38e-07
x1 = 0.8543 | -1.52e-07
x1 = 0.9112 | -9.8e-08

CCC(C)Cl (stereo unspecified) [2-chlorobutane] + c1ccccc1
Settings | excess molar volume [m3/mol]
x1 = 0.0696 | 1e-09
x1 = 0.084 | 2e-09
x1 = 0.1122 | 1e-09
x1 = 0.1524 | 2e-09
x1 = 0.1983 | -2e-09
x1 = 0.2184 | -5e-09
x1 = 0.2744 | -5e-09
x1 = 0.3652 | -1.8e-08
x1 = 0.4665 | -2.6e-08
x1 = 0.5692 | -4.4e-08
x1 = 0.6062 | -4.8e-08
x1 = 0.752 | -5.4e-08
x1 = 0.8041 | -4.6e-08
x1 = 0.8573 | -4e-08
x1 = 0.9032 | -3.5e-08
x1 = 0.9405 | -2.5e-08
